{
  "source": "ChEMBL document CHEMBL1201862",
  "about": "“PubChem BioAssay data set” (2004)",
  "key": {"[1]": {"target": "T1, Calpain-2 catalytic subunit (Sus scrofa, UniProt P43367)", "T1 sequence (P43367 whole entry)": "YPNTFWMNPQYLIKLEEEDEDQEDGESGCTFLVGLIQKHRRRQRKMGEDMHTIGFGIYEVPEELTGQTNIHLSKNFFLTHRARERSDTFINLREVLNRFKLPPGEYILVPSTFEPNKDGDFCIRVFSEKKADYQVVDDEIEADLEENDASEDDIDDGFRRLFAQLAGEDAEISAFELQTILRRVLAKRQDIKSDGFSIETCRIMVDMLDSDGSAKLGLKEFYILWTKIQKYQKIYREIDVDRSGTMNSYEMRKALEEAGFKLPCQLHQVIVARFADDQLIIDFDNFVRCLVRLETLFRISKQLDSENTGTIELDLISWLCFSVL", "assay": "pig calpain II inhibitor potency, dose response, biochemical, fluorogenic peptide substrate (AID 1420)", "format": "functional"}, "[2]": {"target": "T2, Heat shock factor protein 1 (Mus musculus, UniProt P38532)", "T2 sequence (P38532 whole entry)": "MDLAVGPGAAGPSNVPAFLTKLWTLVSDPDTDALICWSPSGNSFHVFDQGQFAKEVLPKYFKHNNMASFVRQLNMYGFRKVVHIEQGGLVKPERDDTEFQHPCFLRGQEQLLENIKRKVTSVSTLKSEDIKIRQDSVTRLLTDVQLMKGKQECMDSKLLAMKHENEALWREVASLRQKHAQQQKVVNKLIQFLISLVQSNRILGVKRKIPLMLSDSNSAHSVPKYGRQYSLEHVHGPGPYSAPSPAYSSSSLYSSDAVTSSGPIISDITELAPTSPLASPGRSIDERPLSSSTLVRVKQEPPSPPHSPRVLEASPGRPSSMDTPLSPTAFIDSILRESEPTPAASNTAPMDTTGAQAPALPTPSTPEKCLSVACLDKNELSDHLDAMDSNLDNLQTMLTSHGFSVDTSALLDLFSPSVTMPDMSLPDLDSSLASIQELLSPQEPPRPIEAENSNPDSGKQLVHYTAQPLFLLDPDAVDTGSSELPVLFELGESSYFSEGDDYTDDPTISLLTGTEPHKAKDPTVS", "assay": "inhibition of MG132-induced HSE-luciferase signal, confirmation, cell-based, NIH3T3, luminescence, dose retest (AID 2382);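 also: NIH3T3 fibroblasts with HSF1-driven luciferase reporter stressed by proteasome inhibitor MG132; luminescence from HSF1-driven luciferase expression after 8 hours of MG132 stress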", "format": "functional"}, "[3]": {"system": "H9c2", "assay": "cells", "format": "functional, cell-based", "conditions": "Rattus norvegicus, H9c2, Myocardium"}, "[4]": {"target": "T3, Zinc finger protein mex-5 (Caenorhabditis elegans, UniProt Q9XUB2)", "T3 sequence (Q9XUB2 whole entry)": "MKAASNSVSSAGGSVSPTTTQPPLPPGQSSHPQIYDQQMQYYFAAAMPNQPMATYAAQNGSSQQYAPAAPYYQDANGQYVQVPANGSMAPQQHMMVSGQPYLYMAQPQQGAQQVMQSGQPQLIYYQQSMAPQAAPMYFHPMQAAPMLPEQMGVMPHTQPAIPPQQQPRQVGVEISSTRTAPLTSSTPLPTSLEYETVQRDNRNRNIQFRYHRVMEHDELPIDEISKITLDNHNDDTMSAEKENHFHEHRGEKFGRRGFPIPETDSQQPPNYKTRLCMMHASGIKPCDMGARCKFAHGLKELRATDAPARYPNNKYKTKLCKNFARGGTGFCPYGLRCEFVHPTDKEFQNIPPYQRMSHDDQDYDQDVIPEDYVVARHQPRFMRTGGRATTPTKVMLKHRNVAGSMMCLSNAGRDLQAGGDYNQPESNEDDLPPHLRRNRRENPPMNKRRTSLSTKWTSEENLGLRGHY", "assay": "MEX-5/TCR-2 RNA interaction inhibitors, dose response, biochemical, C. elegans, fluorescence polarization (AID 1960)"}, "[5]": {"target": "T4, RNA-binding protein pos-1 (Caenorhabditis elegans, UniProt G5EF15)", "T4 sequence (G5EF15 whole entry)": "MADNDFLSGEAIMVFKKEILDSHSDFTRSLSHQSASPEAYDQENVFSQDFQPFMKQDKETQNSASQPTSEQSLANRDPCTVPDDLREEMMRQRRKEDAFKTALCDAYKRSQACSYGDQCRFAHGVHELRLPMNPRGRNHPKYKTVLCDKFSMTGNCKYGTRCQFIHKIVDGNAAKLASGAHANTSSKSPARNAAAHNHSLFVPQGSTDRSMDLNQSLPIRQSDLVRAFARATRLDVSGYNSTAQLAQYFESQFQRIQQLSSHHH", "assay": "inhibitors of POS-1/mex-3 RNA binding, dose response, biochemical, fluorescence polarization (AID 1964);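 also: purified POS-1 fused to maltose binding protein made in E. coli; potency of compounds blocking POS-1 binding to fluorescent RNA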"}, "[6]": {"assay": "cytotoxicity toward NIH3T3 fibroblasts, dose response, counter-screen, cell-based, ATP luminescence, mouse fibroblasts (AID 2010);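 also: cells exposed to compound for about 90 hours before reading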", "format": "functional"}, "[7]": {"assay": "inhibitors of intracellular T. cruzi replication, confirmation, NIH3T3 host cells, beta-gal luminescence (AID 2044);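 also: luminescent beta-galactosidase reporter signal from transgenic T. cruzi replicating inside host cells; inhibitors lower the luminescence signal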", "format": "functional, cell-based"}, "[8]": {"assay": "NIH-3T3 fibroblast cytotoxicity, dose response, cytotoxicity control, cell-based, fluorescence, Alamar Blue, secondary assay (AID 2327);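 also: NIH-3T3 mouse fibroblasts cultured with fluconazole at 8 µg/mL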", "format": "functional"}, "[9]": {"assay": "C. albicans growth with fluconazole, confirmation, fluorescence, retest (AID 2467)", "format": "functional, cell-based"}, "[10]": {"target": "FAD-linked sulfhydryl oxidase ALR (Homo sapiens, UniProt P55789)", "sequence (P55789 whole entry)": "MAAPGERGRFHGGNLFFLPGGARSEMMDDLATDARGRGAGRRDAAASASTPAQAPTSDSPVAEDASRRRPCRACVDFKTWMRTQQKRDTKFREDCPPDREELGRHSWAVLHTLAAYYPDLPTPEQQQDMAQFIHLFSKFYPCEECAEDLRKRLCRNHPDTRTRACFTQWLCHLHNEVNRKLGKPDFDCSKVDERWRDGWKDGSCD", "assay": "inhibitors of human ALR sulfhydryl oxidase, dose response, biochemical, H2O2 detection, luminescence, cherry-pick (AID 493248)"}, "[11]": {"target": "Cytochrome P450 2C9 (Homo sapiens, UniProt P11712)", "sequence (P11712 whole entry)": "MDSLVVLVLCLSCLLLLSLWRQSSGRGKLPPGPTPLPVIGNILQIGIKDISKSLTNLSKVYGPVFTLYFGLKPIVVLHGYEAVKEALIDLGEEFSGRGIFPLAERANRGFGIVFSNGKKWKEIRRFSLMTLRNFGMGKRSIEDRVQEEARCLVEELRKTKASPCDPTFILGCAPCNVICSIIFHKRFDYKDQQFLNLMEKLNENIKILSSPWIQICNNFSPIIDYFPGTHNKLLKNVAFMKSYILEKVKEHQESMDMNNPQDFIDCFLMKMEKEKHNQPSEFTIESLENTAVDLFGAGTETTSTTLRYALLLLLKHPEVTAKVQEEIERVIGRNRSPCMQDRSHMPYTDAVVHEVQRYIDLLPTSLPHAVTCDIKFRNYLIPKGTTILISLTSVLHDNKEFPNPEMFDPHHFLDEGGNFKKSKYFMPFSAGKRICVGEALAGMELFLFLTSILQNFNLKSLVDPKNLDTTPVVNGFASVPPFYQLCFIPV"}},
  "note": "Active and inactive are the calls of the source.",
  "data": [
    {"smiles": "Oc1ccccc1CN(Cc1ccco1)CC(O)COCc1ccc(Cl)cc1", "note": "(centres undefined)", "values": [
      {"measurement": "IC50", "setting": "[1]", "value": "7.83 µM (not active)"}
    ]},
    {"smiles": "O=C(C1CCCO1)N1CCC2(CC1)OCCO2", "note": "(centres undefined)", "values": [
      {"measurement": "EC50", "setting": "[2]", "value": "> 195 µM (not active)"}
    ]},
    {"smiles": "CSCc1cc(N2CCOCC2)nc(SCc2ccc(Cl)cc2Cl)n1", "values": [
      {"measurement": "IC50", "setting": "[1]", "value": "3.57 µM (not active)"}
    ]},
    {"smiles": "CC(C)CCN(C(=S)NC(=O)C1CCCCC1)c1c(N)n(Cc2ccccc2)c(=O)[nH]c1=O", "values": [
      {"measurement": "IC50", "setting": "[1]", "value": "> 50 µM (not active)"}
    ]},
    {"smiles": "CCC1CCCCN1C(=O)c1cc2c(=O)n3cccc(C)c3nc2s1", "note": "(centres undefined)", "values": [
      {"measurement": "EC50", "setting": "[2]", "value": "> 195 µM (not active)"}
    ]},
    {"smiles": "O=C(CSc1ccc2nnc(-c3ccncc3)n2n1)Nc1nccs1", "values": [
      {"measurement": "IC50", "setting": "[1]", "value": "> 50 µM (not active)"}
    ]},
    {"smiles": "CC1CCN(Cc2cnc(Cl)s2)CC1", "values": [
      {"measurement": "IC50", "setting": "[1]", "value": "1.78 µM (not active)"}
    ]},
    {"smiles": "CN(C)C=O.COc1ccc(/C=C/c2nc3ccccc3c(=O)n2-c2cccc(C(=O)O)c2)cc1", "values": [
      {"measurement": "EC50", "setting": "[2]", "value": "22.7 µM (active)"}
    ]},
    {"smiles": "COc1cccc(CN(C)C(=O)C(Cc2ccccc2)NC(=O)c2ccccc2)c1OC", "note": "(centres undefined)", "values": [
      {"measurement": "IC50", "setting": "[3]", "value": "6.93 µM (active)"}
    ]},
    {"smiles": "O=C(NC1CCCCC1)C(c1ccc2ncccc2c1)N(Cc1cccs1)C(=O)c1cccs1", "note": "(centres undefined)", "values": [
      {"measurement": "IC50", "setting": "[3]", "value": "> 79 µM (inactive)"}
    ]},
    {"smiles": "CCCCN1C(=O)NC(=O)/C(=C\\NNC(=O)c2ccncc2)C1=O", "values": [
      {"measurement": "EC50", "setting": "[4]", "value": "> 300 µM (not active)"},
      {"measurement": "EC50", "setting": "[5]", "value": "> 300 µM (not active)"}
    ]},
    {"smiles": "CC(C)CC(=O)Nc1ccc(C(=O)COC(=O)Cc2nnc(O)c3ccccc23)cc1", "values": [
      {"measurement": "IC50", "setting": "[3]", "value": "18.4 µM (active)"}
    ]},
    {"smiles": "Cc1ccc(Nc2nc(CSc3nnc(-c4ccncc4)n3-c3ccccc3C)cs2)cc1", "values": [
      {"measurement": "EC50", "setting": "[6]", "value": "> 60 µM (inconclusive)"},
      {"measurement": "EC50", "setting": "[7]", "value": "2.47 µM (active)"},
      {"measurement": "EC50", "setting": "[8]", "value": "> 160 µM (inactive)"},
      {"measurement": "EC50", "setting": "[9]", "value": "4.95 µM (active)"}
    ]},
    {"smiles": "C=CCN1C(=O)NC(=O)/C(=C(/C)NC2CCN(Cc3ccccc3)CC2)C1=O", "values": [
      {"measurement": "EC50", "setting": "[2]", "value": "> 195 µM (not active)"}
    ]},
    {"smiles": "CC(C)CCNC(=O)NC(=O)CSc1nnc(-c2ccccc2Br)o1", "values": [
      {"measurement": "IC50", "setting": "[1]", "value": "> 50 µM (not active)"}
    ]},
    {"smiles": "Cc1cc(NC(=O)COC(=O)[C@H](C)NC(=O)c2ccccc2)no1", "values": [
      {"measurement": "EC50", "setting": "[2]", "value": "> 195 µM (not active)"}
    ]},
    {"smiles": "CCOC(=O)c1c(NC(=O)COC(=O)Cc2nnc(O)c3ccccc23)sc(C(=O)NC)c1C", "values": [
      {"measurement": "IC50", "setting": "[3]", "value": "> 79 µM (inactive)"}
    ]},
    {"smiles": "COc1ccc(NS(=O)(=O)c2cc(NC(=O)Cc3nnc(O)c4ccccc34)ccc2OC)cc1", "values": [
      {"measurement": "IC50", "setting": "[3]", "value": "> 79 µM (inactive)"}
    ]},
    {"smiles": "COc1cc(/C=N/n2nnnc2Nc2ccccc2)cc(OC)c1OC", "values": [
      {"measurement": "IC50", "setting": "[3]", "value": "12.4 µM (active)"}
    ]},
    {"smiles": "CC1=NN(c2ccccc2)C(=O)C1c1ccccc1", "note": "(centres undefined)", "values": [
      {"measurement": "AC50", "setting": "[10]", "value": "2.86 µM (active)"}
    ]},
    {"smiles": "O=C(O)CC1S/C(=N/N=C/c2ccc(Br)cc2)N(c2ccccc2)C1=O", "note": "(centres undefined)", "values": [
      {"measurement": "IC50", "setting": "[1]", "value": "9.55 µM (not active)"}
    ]},
    {"smiles": "CN1CCN(/C=N/C2=C(C#N)C(c3ccccc3)C3=C(CC(C)(C)CC3=O)O2)CC1", "note": "(centres undefined)", "values": [
      {"measurement": "AC50", "setting": "[11]", "value": "14.1 µM (inconclusive)"},
      {"measurement": "EC50", "setting": "[4]", "value": "> 300 µM (not active)"},
      {"measurement": "EC50", "setting": "[5]", "value": "> 300 µM (not active)"}
    ]},
    {"smiles": "O=C(N/N=C/c1cccc(C(F)(F)F)c1)c1ccc(O)cc1", "values": [
      {"measurement": "EC50", "setting": "[2]", "value": "> 195 µM (not active)"}
    ]}
  ]
}
